The source of these data is patent publication US20100261723A1, “TRISUBSTITUTED PYRIMIDINE DERIVATIVES FOR THE TREATMENT OF PROLIFERATIVE DISEASES” (ASTRAZENECA AB, priority 2007, published 2010).

T1 sequence (P42345 1362-2549): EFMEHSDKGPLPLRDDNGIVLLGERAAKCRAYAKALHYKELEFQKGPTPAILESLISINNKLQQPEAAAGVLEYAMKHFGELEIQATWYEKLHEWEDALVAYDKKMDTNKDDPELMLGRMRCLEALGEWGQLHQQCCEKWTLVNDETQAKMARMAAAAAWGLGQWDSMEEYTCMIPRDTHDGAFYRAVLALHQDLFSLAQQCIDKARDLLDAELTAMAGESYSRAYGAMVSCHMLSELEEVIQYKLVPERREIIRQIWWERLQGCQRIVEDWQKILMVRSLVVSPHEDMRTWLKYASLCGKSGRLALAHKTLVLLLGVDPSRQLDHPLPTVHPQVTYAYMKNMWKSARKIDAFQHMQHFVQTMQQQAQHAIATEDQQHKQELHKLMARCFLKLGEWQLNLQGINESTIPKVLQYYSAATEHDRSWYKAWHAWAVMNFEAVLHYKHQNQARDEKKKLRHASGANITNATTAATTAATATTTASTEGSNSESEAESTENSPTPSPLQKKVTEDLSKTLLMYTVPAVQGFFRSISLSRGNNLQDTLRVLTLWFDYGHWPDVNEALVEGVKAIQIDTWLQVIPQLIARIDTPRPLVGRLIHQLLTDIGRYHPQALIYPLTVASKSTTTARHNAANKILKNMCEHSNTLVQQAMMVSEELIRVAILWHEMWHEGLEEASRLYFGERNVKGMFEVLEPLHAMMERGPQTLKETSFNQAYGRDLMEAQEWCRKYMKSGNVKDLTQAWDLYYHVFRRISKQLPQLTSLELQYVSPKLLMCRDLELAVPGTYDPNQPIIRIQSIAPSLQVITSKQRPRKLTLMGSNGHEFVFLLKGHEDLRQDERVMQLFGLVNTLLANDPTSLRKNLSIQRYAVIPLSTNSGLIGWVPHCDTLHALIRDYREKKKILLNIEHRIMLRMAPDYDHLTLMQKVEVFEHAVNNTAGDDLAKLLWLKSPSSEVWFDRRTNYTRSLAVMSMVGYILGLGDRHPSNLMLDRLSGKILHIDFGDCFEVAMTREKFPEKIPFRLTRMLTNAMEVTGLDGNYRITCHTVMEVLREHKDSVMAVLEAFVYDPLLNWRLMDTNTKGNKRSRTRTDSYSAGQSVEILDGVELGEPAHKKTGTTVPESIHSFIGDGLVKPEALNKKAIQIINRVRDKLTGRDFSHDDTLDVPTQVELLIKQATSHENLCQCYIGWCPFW

This test addresses T1, mTOR kinase (Homo sapiens, UniProt P42345).
T1 construct: FLAG; made in house
The experiment in a line: In vitro mTOR kinase assay, Test (a)(i) (AlphaScreen). It is filed as biochemical. The conditions noted are these: recombinant FLAG-tagged mTOR (1362-2549), ATP 20 μM; read-out: Test (a)(i) IC50. The procedure: (a)(i) In Vitro mTOR Kinase Assay
A C-terminal truncation of mTOR encompassing amino acid residues 1362 to 2549 of mTOR (EMBL Accession No. L34075) was stably expressed as a FLAG-tagged fusion in HEK293 cells as described by Vilella-Bach et al., […], 1999, 274, 4266-4272. The HEK293 FLAG-tagged mTOR (1362-2549) stable cell line was routinely maintained at 37° C. with 5% CO2 up to a confluency of 70-90% in Dulbecco's modified Eagle's growth medium (DMEM; Invitrogen Limited, Paisley, UK Catalogue No. 41966-029) containing 10% heat-inactivated foetal calf serum (FCS; Sigma, Poole, Dorset, UK, Catalogue No. F0392), 1% L-glutamine (Gibco, Catalogue No. 25030-024) and 2 mg/ml Geneticin (G418 sulfate; Invitrogen Limited, UK Catalogue No. 10131-027). Following expression in the mammalian HEK293 cell line, expressed protein was purified using the FLAG epitope tag using standard purification techniques.
A 30 μl mixture of recombinant purified mTOR enzyme, 1 μM biotinylated peptide substrate (Biotin-Ahx-[…]NH2; Bachem UK Ltd), ATP (20 μM) and a buffer solution [comprising Tris-HCl pH7.4 buffer (50 mM), EGTA (0.1 mM), bovine serum albumin (0.5 mg/mL), DTT (1.25 mM) and manganese chloride (10 mM)] was agitated at room temperature for 90 minutes.
These assay solutions were incubated for 2 hours at room temperature.
Phosphorylated biotinylated peptide is formed in situ as a result of mTOR mediated phosphorylation. The phosphorylated biotinylated peptide that is associated with AlphaScreen Streptavidin donor beads forms a complex with the p70 S6 Kinase (T389) 1A5 Monoclonal Antibody that is associated with Alphascreen Protein A acceptor beads. […] Accordingly, the presence of mTOR kinase activity results in an assay signal. In the presence of an mTOR kinase inhibitor, signal strength is reduced.
On the technique in general: Alpha assays give light when donor and acceptor beads are brought close together.
In the case of `CS(=O)(=O)Cc1cc(N2CCOCC2)nc(-c2ccc(NC(=O)C3(C#N)CC3)cc2)n1` [Example 5at, 1-cyano-N-[4-[4-(methylsulfonylmethyl)-6-morpholin-4-yl-pyrimidin-2-yl]phenyl]cyclopropane-1-carboxamide], the IC50 was 1010 nM.

In the case of `CS(=O)(=O)Cc1cc(N2CCOCC2)nc(-c2ccc(NC(=O)C3CCOCC3)cc2)n1` [Example 5ac, N-[4-[4-(methylsulfonylmethyl)-6-morpholin-4-yl-pyrimidin-2-yl]phenyl]oxane-4-carboxamide], the IC50 worked out at 5380 nM.

Consider `CS(=O)(=O)Cc1cc(N2CCOCC2)nc(-c2ccc(NC(=O)c3cncs3)cc2)n1` [Example 5ao, N-[4-[4-(methylsulfonylmethyl)-6-morpholin-4-yl-pyrimidin-2-yl]phenyl]-1,3-thiazole-5-carboxamide], for which the IC50 is 552 nM.

Turning to `CS(=O)(=O)Cc1cc(N2CCOCC2)nc(-c2ccc(NC(=O)c3ccccc3)cc2)n1` [Example 4a, N-[4-[4-(methylsulfonylmethyl)-6-morpholin-4-yl-pyrimidin-2-yl]phenyl]benzamide], the IC50 came to 15300 nM.

Consider `CC(=O)Nc1ccc(-c2nc(CS(C)(=O)=O)cc(N3CCOCC3)n2)cc1` [Example 4, N-[4-[4-(Methylsulfonylmethyl)-6-morpholin-4-yl-pyrimidin-2-yl]phenyl]acetamide], for which the half-maximal inhibitory concentration (IC50) came out at 930 nM.

Turning to `CS(=O)(=O)Cc1cc(N2CCOCC2)nc(-c2ccc(NC(=O)CC(F)(F)F)cc2)n1` [Example 5aq, 3,3,3-trifluoro-N-[4-[4-(methylsulfonylmethyl)-6-morpholin-4-yl-pyrimidin-2-yl]phenyl]propanamide], the IC50 was determined as 609 nM.

For the compound `CS(=O)(=O)Cc1cc(N2CCOCC2)nc(-c2ccc(NC(=O)Cc3ccco3)cc2)n1` [Example 5ai, 2-(2-furyl)-N-[4-[4-(methylsulfonylmethyl)-6-morpholin-4-yl-pyrimidin-2-yl]phenyl]acetamide], the IC50 worked out at 1640 nM.

In the case of `CS(=O)(=O)Cc1cc(N2CCOCC2)nc(-c2ccc(NC(=O)C3CCC(=O)N3)cc2)n1` (stereo not drawn) [Example 5t, N-[4-[4-(methylsulfonylmethyl)-6-morpholin-4-yl-pyrimidin-2-yl]phenyl]-5-oxo-pyrrolidine-2-carboxamide], the IC50 was 2860 nM.

On to `C[C@H]1COCCN1c1cc(CS(C)(=O)=O)nc(-c2ccc(N(C)C(=O)c3ccno3)cc2)n1` [Example 7, N-Methyl-N-[4-[4-[(3S)-3-methylmorpholin-4-yl]-6-(methylsulfonylmethyl)pyrimidin-2-yl]phenyl]-1,2-oxazole-5-carboxamide], for which the IC50 was 240 nM.

Turning to `CS(=O)(=O)Cc1cc(N2CCOCC2)nc(-c2ccc(NC(=O)C3CCOC3)cc2)n1` (stereo not drawn) [Example 5u, N-[4-[4-(methylsulfonylmethyl)-6-morpholin-4-yl-pyrimidin-2-yl]phenyl]oxolane-3-carboxamide], the IC50 was found to be 4840 nM.

As for `CS(=O)(=O)Cc1cc(N2CCOCC2)nc(-c2ccc(NC(=O)C(N)=O)cc2)n1` [Example 5s, N-[4-[4-(methylsulfonylmethyl)-6-morpholin-4-yl-pyrimidin-2-yl]phenyl]oxamide], the IC50 amounted to 2290 nM.

Take `CCOCCC(=O)Nc1ccc(-c2nc(CS(C)(=O)=O)cc(N3CCOCC3)n2)cc1` [Example 5l, 3-ethoxy-N-[4-[4-(methylsulfonylmethyl)-6-morpholin-4-yl-pyrimidin-2-yl]phenyl]propanamide]: the IC50 came out at 2000 nM.

With `CS(=O)(=O)Cc1cc(N2CCOCC2)nc(-c2ccc(NC(=O)c3csnn3)cc2)n1` [Example 5as, N-[4-[4-(methylsulfonylmethyl)-6-morpholin-4-yl-pyrimidin-2-yl]phenyl]thiadiazole-4-carboxamide], the IC50 came out at 360 nM.

As to `COCCC(=O)Nc1ccc(-c2nc(CS(C)(=O)=O)cc(N3CCOCC3)n2)cc1` [Example 5k, 3-methoxy-N-[4-[4-(methylsulfonylmethyl)-6-morpholin-4-yl-pyrimidin-2-yl]phenyl]propanamide], the IC50 was 2080 nM.

Take `CS(=O)(=O)Cc1cc(N2CCOCC2)nc(-c2ccc(NC(=O)c3ccno3)cc2)n1` [Example 5v, N-[4-[4-(methylsulfonylmethyl)-6-morpholin-4-yl-pyrimidin-2-yl]phenyl]-1,2-oxazole-5-carboxamide]: the IC50 came to 36.9 nM.

As for `CS(=O)(=O)Cc1cc(N2CCOCC2)nc(-c2ccc(NC(=O)CCC#N)cc2)n1` [Example 5au, 3-cyano-N-[4-[4-(methylsulfonylmethyl)-6-morpholin-4-yl-pyrimidin-2-yl]phenyl]propanamide], the IC50 stood at 165 nM.

In the case of `CS(=O)(=O)Cc1cc(N2CCOCC2)nc(-c2ccc(NC(=O)CC#N)cc2)n1` [Example 5o, 2-cyano-N-[4-[4-(methylsulfonylmethyl)-6-morpholin-4-yl-pyrimidin-2-yl]phenyl]acetamide], the IC50 came out at 1850 nM.

Take `CS(=O)(=O)Cc1cc(N2CCOCC2)nc(-c2ccc(NC(=O)Cc3ncccn3)cc2)n1` [Example 5ak, N-[4-[4-(methylsulfonylmethyl)-6-morpholin-4-yl-pyrimidin-2-yl]phenyl]-2-pyrimidin-2-yl-acetamide]: the IC50 was found to be 7790 nM.

On to `CS(=O)(=O)Cc1cc(N2CCOCC2)nc(-c2ccc(NC(=O)C3=COCCC3)cc2)n1` [Example 5ag, N-[4-[4-(methylsulfonylmethyl)-6-morpholin-4-yl-pyrimidin-2-yl]phenyl]-5,6-dihydro-4H-pyran-3-carboxamide], for which the IC50 was 2760 nM.

Turning to `CS(=O)(=O)Cc1cc(N2CCOCC2)nc(-c2ccc(NC(=O)c3cc[nH]n3)cc2)n1` [Example 5ae, N-[4-[4-(methylsulfonylmethyl)-6-morpholin-4-yl-pyrimidin-2-yl]phenyl]-1H-pyrazole-3-carboxamide], the IC50 was 1810 nM.

Turning to `CC(C)(C(N)=O)C(=O)Nc1ccc(-c2nc(CS(C)(=O)=O)cc(N3CCOCC3)n2)cc1` [Example 5al, 2,2-dimethyl-N′-[4-[4-(methylsulfonylmethyl)-6-morpholin-4-yl-pyrimidin-2-yl]phenyl]propanediamide], the IC50 is 3960 nM.

Regarding `CS(=O)(=O)Cc1cc(N2CCOCC2)nc(-c2ccc(NC(=O)CCc3ccco3)cc2)n1` [Example 5q, 3-(2-furyl)-N-[4-[4-(methylsulfonylmethyl)-6-morpholin-4-yl-pyrimidin-2-yl]phenyl]propanamide], the IC50 came to 4850 nM.

In the case of `CCCC(=O)Nc1ccc(-c2nc(CS(C)(=O)=O)cc(N3CCOCC3)n2)cc1` [Example 5b, N-[4-[4-(methylsulfonylmethyl)-6-morpholin-4-yl-pyrimidin-2-yl]phenyl]butanamide], the IC50 turned out to be 669 nM.

Consider `Cc1ccn(CC(=O)Nc2ccc(-c3nc(CS(C)(=O)=O)cc(N4CCOCC4)n3)cc2)n1` [Example 5an, 2-(3-methylpyrazol-1-yl)-N-[4-[4-(methylsulfonylmethyl)-6-morpholin-4-yl-pyrimidin-2-yl]phenyl]acetamide], for which the IC50 came out at 29700 nM.

Usually IC50 stands for the concentration needed to halve the response being measured.
